Source: patent US11945816B2, “Inhibitors of EGFR and/or HER2 and methods of use” (Dana-Farber Cancer Institute, Inc., priority 2017, dated 2024)

Columns and labels:
Assay type in all cases: cell-based
Conditions in all cases: MTS assay, 72 hours
[1] = biological target: T1, wild-type EGFR transformed Ba/F3 cells (Homo sapiens, UniProt P00533); experiment: Proliferation inhibition assay, wild-type EGFR transformed Ba/F3 cells
T1 construct: expressed in transfected cells; host or cells: Ba/F3
Procedure: (§1) Cell growth inhibition can be assessed by MTS assay or by Cell Titer Glo Luminescent Cell viability assay (Promega®). Cells are seeded and grow in culture plates before they are exposed to representative compounds of the application for various duration. The viability of the cells are then assessed. […] The growth curves can be fitted using a nonlinear regression model with sigmoidal dose response.
(§2) Cell growth inhibition was assessed by MTS assay for Ba/F3, DFCI58-229, and DFCI127c cells, or by Cell Titer Glo Luminescent Cell viability assay (Promega®) for DFC1362JC cells, 3000 Ba/F3 cells were seeded for per well in 96-well plates, and were exposed to representative compounds of the application (3.3 nM to 10 μM) for 72 hours. For DFCI58-229, DFCI127c, and DFC1362JC cells, 5000 cells were seeded per well. All experimental points included 6 to 12 wells. […] The growth curves were fitted using a nonlinear regression model with sigmoidal dose response.
(§3) Activities of representative compounds of the present application in inhibiting EGFR and HER2 were tested by MTS assay (for Ba/F3 cell, DFCI58-229 cell, and DFCI127c cells) or by CellTiter-Glot luminescent cell viability assay (for DFCI362JC cells). For assays with Ba/F3 cells, 3000 cells were seeded for per well in 96-well plates and were exposed to indicated compounds with a concentration of 3.3 to 10 μM for 72 hours. For assays with DFCI58-229 cell, DFCI127c cell, or DFCI362JC cell, 5000 cells were seeded per well in 96-well plates and were exposed to indicated compounds with a concentration of 3.3 to 10 μM for 72 hours.

[2] = biological target: T2, EGFR InsGY (D770delinsGY) transformed Ba/F3 cells (Homo sapiens, UniProt P00533, D770Y/INS769G); experiment: Proliferation inhibition assay, EGFR InsGY transformed Ba/F3 cells
T2 construct: expressed in transfected cells; host or cells: Ba/F3
T2 sequence (P00533 with tags, fused parts or gaps INS769G/D770Y): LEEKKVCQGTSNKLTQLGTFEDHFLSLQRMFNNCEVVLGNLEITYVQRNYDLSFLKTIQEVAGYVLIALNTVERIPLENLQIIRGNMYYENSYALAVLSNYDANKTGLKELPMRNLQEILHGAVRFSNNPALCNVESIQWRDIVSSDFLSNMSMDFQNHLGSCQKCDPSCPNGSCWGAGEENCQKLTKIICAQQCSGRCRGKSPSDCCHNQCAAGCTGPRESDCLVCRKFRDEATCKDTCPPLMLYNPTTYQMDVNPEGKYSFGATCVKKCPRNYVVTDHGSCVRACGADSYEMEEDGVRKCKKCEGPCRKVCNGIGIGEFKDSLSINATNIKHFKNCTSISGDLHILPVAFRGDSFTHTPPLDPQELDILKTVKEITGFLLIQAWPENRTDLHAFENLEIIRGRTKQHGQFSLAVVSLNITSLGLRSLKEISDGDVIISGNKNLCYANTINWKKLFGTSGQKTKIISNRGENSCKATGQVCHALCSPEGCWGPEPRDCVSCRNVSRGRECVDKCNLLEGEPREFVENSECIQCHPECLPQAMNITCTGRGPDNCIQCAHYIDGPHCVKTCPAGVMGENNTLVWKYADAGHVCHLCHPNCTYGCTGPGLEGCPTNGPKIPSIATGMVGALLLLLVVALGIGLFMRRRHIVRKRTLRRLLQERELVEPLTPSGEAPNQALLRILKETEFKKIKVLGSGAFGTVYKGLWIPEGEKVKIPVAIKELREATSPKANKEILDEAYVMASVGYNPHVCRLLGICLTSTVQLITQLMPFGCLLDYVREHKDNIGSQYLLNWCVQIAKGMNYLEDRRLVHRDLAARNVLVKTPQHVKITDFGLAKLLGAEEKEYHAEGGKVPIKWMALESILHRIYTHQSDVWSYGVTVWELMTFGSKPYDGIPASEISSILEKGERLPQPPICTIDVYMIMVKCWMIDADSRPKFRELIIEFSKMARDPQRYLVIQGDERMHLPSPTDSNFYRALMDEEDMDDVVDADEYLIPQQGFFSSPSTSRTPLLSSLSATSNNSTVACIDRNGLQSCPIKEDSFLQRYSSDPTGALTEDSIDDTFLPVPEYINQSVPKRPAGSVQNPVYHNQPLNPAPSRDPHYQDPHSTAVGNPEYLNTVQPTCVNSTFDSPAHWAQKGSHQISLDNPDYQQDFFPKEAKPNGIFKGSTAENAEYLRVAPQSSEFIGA
Procedure: as §1, §2, §3

[3] = biological target: T3, EGFR InsSVD (D770_N771insSVD) transformed Ba/F3 cells (Homo sapiens, UniProt P00533, INS770SVD); experiment: Proliferation inhibition assay, EGFR InsSVD transformed Ba/F3 cells
T3 construct: expressed in transfected cells; host or cells: Ba/F3
Procedure: as §1, §2, §3

[4] = biological target: T4, EGFR InsH transformed Ba/F3 cells (Homo sapiens, UniProt P00533, DUP773-773); experiment: Proliferation inhibition assay, EGFR InsH transformed Ba/F3 cells
T4 construct: expressed in transfected cells; host or cells: Ba/F3
T4 sequence (P00533 with tags, fused parts or gaps DUP773-773): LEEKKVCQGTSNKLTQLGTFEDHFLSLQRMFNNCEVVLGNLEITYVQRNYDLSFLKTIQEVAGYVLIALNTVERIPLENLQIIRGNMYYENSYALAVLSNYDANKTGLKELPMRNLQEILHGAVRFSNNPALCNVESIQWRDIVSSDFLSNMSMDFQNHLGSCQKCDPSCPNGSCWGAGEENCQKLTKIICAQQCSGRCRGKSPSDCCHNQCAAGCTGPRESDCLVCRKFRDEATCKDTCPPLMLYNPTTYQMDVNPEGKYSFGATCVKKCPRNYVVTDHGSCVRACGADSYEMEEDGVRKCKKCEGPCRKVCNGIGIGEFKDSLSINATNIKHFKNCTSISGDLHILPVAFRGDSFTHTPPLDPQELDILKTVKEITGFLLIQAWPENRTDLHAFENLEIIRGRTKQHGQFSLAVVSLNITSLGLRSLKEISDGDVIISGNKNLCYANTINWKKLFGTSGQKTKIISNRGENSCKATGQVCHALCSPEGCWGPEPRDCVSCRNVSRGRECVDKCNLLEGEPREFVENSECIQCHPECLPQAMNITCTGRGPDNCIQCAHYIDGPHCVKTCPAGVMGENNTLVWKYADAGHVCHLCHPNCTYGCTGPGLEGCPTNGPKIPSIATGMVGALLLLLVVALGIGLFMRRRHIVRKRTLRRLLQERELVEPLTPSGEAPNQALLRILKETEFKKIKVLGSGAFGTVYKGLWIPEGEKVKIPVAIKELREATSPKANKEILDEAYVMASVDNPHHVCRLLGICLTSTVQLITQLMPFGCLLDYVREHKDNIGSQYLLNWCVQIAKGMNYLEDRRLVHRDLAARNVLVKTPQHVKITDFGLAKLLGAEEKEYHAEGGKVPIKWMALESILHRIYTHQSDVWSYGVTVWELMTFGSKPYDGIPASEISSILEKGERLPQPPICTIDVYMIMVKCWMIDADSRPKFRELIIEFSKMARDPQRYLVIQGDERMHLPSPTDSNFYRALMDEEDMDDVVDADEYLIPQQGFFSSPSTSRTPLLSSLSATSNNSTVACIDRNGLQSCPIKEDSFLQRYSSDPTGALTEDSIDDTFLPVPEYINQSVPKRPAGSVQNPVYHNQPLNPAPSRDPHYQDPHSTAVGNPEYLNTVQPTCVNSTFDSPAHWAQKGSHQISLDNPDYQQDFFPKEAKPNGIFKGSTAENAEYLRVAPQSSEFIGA
Procedure: as §1, §2, §3

[5] = biological target: T5, wild-type HER2 transformed Ba/F3 cells (Homo sapiens, UniProt P04626); experiment: Proliferation inhibition assay, wild-type HER2 transformed Ba/F3 cells
T5 construct: expressed in transfected cells; host or cells: Ba/F3
T5 sequence (P04626 23-1255): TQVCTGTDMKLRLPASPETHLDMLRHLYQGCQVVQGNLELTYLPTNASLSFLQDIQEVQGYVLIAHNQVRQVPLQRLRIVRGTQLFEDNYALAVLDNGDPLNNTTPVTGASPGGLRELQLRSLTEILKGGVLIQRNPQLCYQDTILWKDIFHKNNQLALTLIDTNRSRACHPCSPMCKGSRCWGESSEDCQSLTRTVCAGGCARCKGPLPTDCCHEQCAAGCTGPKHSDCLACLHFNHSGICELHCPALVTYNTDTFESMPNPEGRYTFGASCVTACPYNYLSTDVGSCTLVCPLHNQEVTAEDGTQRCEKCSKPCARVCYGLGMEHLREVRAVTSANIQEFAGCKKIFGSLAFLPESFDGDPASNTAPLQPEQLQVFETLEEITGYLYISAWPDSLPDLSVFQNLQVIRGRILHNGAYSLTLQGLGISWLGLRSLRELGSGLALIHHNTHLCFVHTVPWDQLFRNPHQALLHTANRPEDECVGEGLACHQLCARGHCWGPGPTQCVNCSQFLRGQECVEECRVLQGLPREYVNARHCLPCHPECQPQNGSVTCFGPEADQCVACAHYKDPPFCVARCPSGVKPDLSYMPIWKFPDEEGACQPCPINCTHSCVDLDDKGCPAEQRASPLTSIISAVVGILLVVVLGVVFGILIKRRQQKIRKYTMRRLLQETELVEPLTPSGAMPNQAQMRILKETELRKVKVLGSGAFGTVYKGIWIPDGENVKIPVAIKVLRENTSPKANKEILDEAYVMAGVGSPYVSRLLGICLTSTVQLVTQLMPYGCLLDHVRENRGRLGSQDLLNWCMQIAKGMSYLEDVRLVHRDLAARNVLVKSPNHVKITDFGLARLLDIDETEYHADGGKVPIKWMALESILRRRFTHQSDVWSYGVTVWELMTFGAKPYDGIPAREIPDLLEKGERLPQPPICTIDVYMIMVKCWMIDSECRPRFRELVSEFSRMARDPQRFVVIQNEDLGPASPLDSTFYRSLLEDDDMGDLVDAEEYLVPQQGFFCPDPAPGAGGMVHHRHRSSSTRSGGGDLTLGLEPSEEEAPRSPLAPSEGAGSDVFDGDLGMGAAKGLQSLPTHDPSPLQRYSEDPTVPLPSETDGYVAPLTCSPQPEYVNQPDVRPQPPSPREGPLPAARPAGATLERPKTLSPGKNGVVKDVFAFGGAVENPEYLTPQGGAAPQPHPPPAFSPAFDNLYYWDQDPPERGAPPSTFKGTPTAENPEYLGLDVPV
Procedure: as §1, §2, §3

[6] = biological target: T6, HER2 InsYVMA (A775_G776insYVMA) transformed Ba/F3 cells (Homo sapiens, UniProt P04626, INS775YVMA); experiment: Proliferation inhibition assay, HER2 InsYVMA transformed Ba/F3 cells
T6 construct: expressed in transfected cells; host or cells: Ba/F3
Procedure: as §1, §2, §3

[7] = biological target: T7, HER2 InsWLV transformed Ba/F3 cells (Homo sapiens, UniProt P04626, INS773WL/M774V); experiment: Proliferation inhibition assay, HER2 InsWLV transformed Ba/F3 cells
T7 construct: expressed in transfected cells; host or cells: Ba/F3
Procedure: as §1, §2, §3

T1 sequence (P00533 25-1210): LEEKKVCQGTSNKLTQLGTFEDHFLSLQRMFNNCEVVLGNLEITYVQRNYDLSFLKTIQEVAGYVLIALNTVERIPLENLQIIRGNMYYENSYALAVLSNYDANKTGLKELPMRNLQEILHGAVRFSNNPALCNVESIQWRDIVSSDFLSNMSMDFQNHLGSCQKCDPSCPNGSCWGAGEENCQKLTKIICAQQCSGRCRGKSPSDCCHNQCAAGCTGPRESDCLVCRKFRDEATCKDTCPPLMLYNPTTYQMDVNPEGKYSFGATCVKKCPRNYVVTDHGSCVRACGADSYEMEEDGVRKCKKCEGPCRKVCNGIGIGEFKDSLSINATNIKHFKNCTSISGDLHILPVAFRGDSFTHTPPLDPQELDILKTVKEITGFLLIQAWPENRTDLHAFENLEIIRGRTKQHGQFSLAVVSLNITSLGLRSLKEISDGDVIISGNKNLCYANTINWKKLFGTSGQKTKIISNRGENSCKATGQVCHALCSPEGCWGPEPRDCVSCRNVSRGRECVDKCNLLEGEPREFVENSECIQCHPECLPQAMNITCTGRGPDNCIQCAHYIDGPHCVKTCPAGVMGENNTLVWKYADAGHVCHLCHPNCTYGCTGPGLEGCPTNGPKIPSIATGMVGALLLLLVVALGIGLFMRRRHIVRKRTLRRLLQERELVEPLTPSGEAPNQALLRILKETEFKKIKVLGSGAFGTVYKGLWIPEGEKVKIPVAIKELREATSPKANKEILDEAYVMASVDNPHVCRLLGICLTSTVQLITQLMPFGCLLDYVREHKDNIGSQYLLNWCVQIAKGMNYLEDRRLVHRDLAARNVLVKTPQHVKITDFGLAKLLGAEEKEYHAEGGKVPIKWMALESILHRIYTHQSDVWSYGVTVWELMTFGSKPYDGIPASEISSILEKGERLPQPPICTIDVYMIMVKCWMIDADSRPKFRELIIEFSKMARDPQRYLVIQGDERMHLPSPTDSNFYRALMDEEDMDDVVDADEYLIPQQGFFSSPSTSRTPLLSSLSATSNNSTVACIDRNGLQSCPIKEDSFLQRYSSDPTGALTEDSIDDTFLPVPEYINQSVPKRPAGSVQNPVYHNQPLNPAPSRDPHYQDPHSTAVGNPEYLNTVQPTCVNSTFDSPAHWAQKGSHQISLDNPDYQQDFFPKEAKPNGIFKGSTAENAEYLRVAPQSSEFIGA

EC50 [1] [nM] | EC50 [2] [nM] | EC50 [3] [nM] | EC50 [4] [nM] | EC50 ([5]; Table 10 key) [nM] | EC50 ([6]; Table 10 key) [nM] | EC50 ([7]; Table 10 key) [nM] | EC50 ([5]; Table 9 key) [nM] | EC50 ([6]; Table 9 key) [nM] | EC50 ([7]; Table 9 key) [nM] | Compound
< 200 | < 200 | < 200 | 200 to 600 | < 200 | < 200 | < 200 |  |  |  | C=CC(=O)N1C[C@H](Cn2c(=O)c(Oc3ccc(F)cc3F)cc3cnc(Nc4cnn(C)c4)nc32)[C@@H](OC)C1 [Compound 102]
200 to 600 |  | 600 to 1000 |  | 200 to 600 | < 200 |  |  |  |  | C=CC(=O)Nc1cc(Nc2ncc3cc(Oc4ccc(F)cc4F)c(=O)n(C)c3n2)c(OC)cc1C1CCN(C)CC1 [Compound 128]
< 200 | 200 to 600 | 200 to 600 | 600 to 1000 |  |  |  | < 100 | < 100 | 250 to 500 | C=CC(=O)Nc1cc(Nc2ncc3cc(Oc4ccc(F)cc4F)c(N)nc3n2)c(OC)cc1N(C)CCN(C)C [Compound 140]
< 200 | < 200 | < 200 | 200 to 600 |  |  |  | < 100 | < 100 | < 100 | C=CC(=O)Nc1cc(Nc2ncc3cc(Nc4ccc(F)cc4F)c(=O)n(C)c3n2)c(OC)cc1N(C)CCN(C)C [Compound 141]
200 to 600 |  | < 200 |  | < 200 | < 200 |  |  |  |  | C=CC(=O)N1C[C@H](Cn2c(=O)c(Oc3ccc(F)cc3F)cc3cnc(N)nc32)[C@@H](OC)C1 [Compound 110]
< 200 |  | < 200 |  | 200 to 600 | 200 to 600 |  |  |  |  | C=CC(=O)N1C[C@H](Cn2c(=O)c(Oc3ccc(F)cc3F)cc3cnc(NC(C)=O)nc32)[C@@H](OC)C1 [Compound 112]
< 200 |  | 200 to 600 | > 1000 | < 200 | < 200 | 600 to 1000 |  |  |  | C=CC(=O)Nc1cc(Nc2ncc3cc(Oc4ccc(F)cc4)c(=O)n(C)c3n2)ccc1N(C)CCN(C)C [Compound 129]
> 1000 |  | > 1000 |  | > 1000 | > 1000 |  |  |  |  | C=CC(=O)Nc1cc(Nc2ncc3cc(Oc4ccc(F)cc4F)c(=O)n(C)c3n2)c(OC)cc1C1CCNCC1 [Compound 127]
< 200 |  | 200 to 600 | > 1000 | < 200 | < 200 | 200 to 600 |  |  |  | C=CC(=O)Nc1cc(Nc2ncc3cc(Oc4ccc(F)cc4F)c(=O)n(C)c3n2)ccc1CCCN(C)C [Compound 117]
< 200 | < 200 | < 200 | 600 to 1000 |  |  |  | < 100 | < 100 | 100 to 250 | C=CC(=O)Nc1cc(Nc2ncc3cc(Nc4ccc(F)cc4F)c(=O)n(C)c3n2)c(OC)cc1OCCN(C)C [Compound 142]
< 200 | < 200 | 200 to 600 | > 1000 | < 200 | < 200 | 200 to 600 |  |  |  | C=CC(=O)Nc1ccc(OC)c(Nc2ncc3cc(Oc4ccc(F)cc4F)c(=O)n(CCN(C)C)c3n2)c1 [Compound 94]
< 200 | < 200 | < 200 | 600 to 1000 | < 200 | < 200 | < 200 |  |  |  | C=CC(=O)Nc1cc(Nc2ncc3cc(Oc4ccc(F)cc4F)c(=O)n(C)c3n2)cnc1N(C)CCN(C)C [Compound 113]
< 200 |  | < 200 | 200 to 600 | < 200 | < 200 | < 200 |  |  |  | C=CC(=O)Nc1cccc(-n2c(=O)c(Oc3ccc(Cl)cc3F)cc3cnc(Nc4cnn(C)c4)nc32)c1 [Compound 89]
 |  |  |  | < 200 | < 200 | < 200 |  |  |  | C=CC(=O)Nc1cc(Nc2ncc3cc(Oc4ccc(F)c(Cl)c4)c(=O)n(C)c3n2)c(OC)cc1N(C)CCN(C)C [Compound 137]
< 200 | < 200 | < 200 | < 200 | < 200 | < 200 | < 200 |  |  |  | C=CC(=O)Nc1cccc(-n2c(=O)c(Oc3c(F)cc(F)cc3F)cc3cnc(Nc4cnn(C)c4)nc32)c1 [Compound 82]
< 200 | < 200 | < 200 | < 200 | < 200 | < 200 | < 200 |  |  |  | C=CC(=O)Nc1cc(Nc2ncc3cc(Oc4ccc(F)cc4F)c(=O)n(CC(F)(F)F)c3n2)c(OC)cc1N(C)CCN(C)C [Compound 85]
< 200 | < 200 | < 200 | 600 to 1000 | < 200 | < 200 | 200 to 600 |  |  |  | CC#CC(=O)Nc1cc(Nc2ncc3cc(Oc4ccc(F)cc4F)c(=O)n(C)c3n2)c(OC)cc1N(C)CCN(C)C [Compound 125]
< 200 | < 200 | < 200 | 200 to 600 | < 200 | < 200 | < 200 |  |  |  | C=CC(=O)Nc1cc(Nc2ncc3cc(Oc4c(F)cc(F)cc4F)c(=O)n(C)c3n2)c(OC)cc1N(C)CCN(C)C [Compound 136]
> 1000 | > 1000 | > 1000 | > 1000 | > 1000 | > 1000 | > 1000 |  |  |  | CCC(=O)Nc1cc(Nc2ncc3cc(Oc4ccc(F)cc4F)c(=O)n(C)c3n2)c(OC)cc1N(C)CCN(C)C [Compound 111]
< 200 |  | < 200 | 600 to 1000 | < 200 | < 200 | < 200 |  |  |  | C=CC(=O)Nc1cccc(-n2c(=O)c(Oc3cc(F)c(F)cc3F)cc3cnc(Nc4cnn(C)c4)nc32)c1 [Compound 87]
200 to 600 | > 1000 | > 1000 | > 1000 | 200 to 600 | 600 to 1000 | 600 to 1000 |  |  |  | C=CC(=O)Nc1cc(Nc2ncc3cc(Oc4ccc(F)cc4F)c(=O)n(C)c3n2)ncc1N(C)CCN(C)C [Compound 105]
< 200 | < 200 | < 200 | 200 to 600 | < 200 | < 200 | < 200 |  |  |  | C=CC(=O)Nc1cc(Nc2ncc3cc(Oc4ccc(F)cc4F)c(=O)[nH]c3n2)c(OC)cc1N(C)CCN(C)C [Compound 99]
< 200 |  | < 200 | < 200 | < 200 | < 200 | < 200 |  |  |  | C=CC(=O)Nc1cc(Nc2ncc3cc(Oc4ccc(F)cc4)c(=O)n(C)c3n2)c(OC)cc1N(C)CCN(C)C [Compound 130]
< 200 |  | < 200 | 200 to 600 | < 200 | < 200 | 200 to 600 |  |  |  | C=CC(=O)Nc1cccc(-n2c(=O)c(Oc3ccc(F)c(Cl)c3)cc3cnc(Nc4cnn(C)c4)nc32)c1 [Compound 88]
< 200 |  | < 200 | 200 to 600 | < 200 | < 200 | < 200 |  |  |  | C=CC(=O)Nc1cc(Nc2ncc3cc(Oc4ccc(C)cc4)c(=O)n(C)c3n2)c(OC)cc1N(C)CCN(C)C [Compound 131]
< 200 |  | < 200 | < 200 | < 200 | < 200 | < 200 |  |  |  | C=CC(=O)Nc1cc(Nc2ncc3cc(Oc4ccccc4)c(=O)n(C)c3n2)c(OC)cc1N(C)CCN(C)C [Compound 132]
< 200 | < 200 | < 200 | 200 to 600 | < 200 | < 200 | < 200 |  |  |  | C=CC(=O)Nc1cccc(-n2c(=O)c(Oc3ccc(F)cc3F)cc3cnc(N)nc32)c1 [Compound 106]
< 200 |  | < 200 | < 200 | < 200 | < 200 | < 200 |  |  |  | C=CC(=O)Nc1cc(Nc2ncc3cc(Oc4ccc(F)cc4F)c(=O)n(C)c3n2)ccc1N(C)CCN(C)C [Compound 116]
< 200 | < 200 | < 200 | 200 to 600 | < 200 | < 200 | < 200 |  |  |  | C=CC(=O)Nc1cc(Nc2ncc3cc(Oc4cc(F)c(F)cc4F)c(=O)n(C)c3n2)c(OC)cc1N(C)CCN(C)C [Compound 135]
